In PMC4887995, “Small molecule dual-inhibitors of TRPV4 and TRPA1 for attenuation of inflammation and pain” (Scientific Reports, 2016):

How the values were obtained:
[1] = biological target: TRPV1 (Mus musculus, UniProt Q704Y3); experiment: Ca++ imaging in N2a cells over-expressing TRPV1 (capsaicin); conditions: 5 μM
Protocol: (§1) (A) Specificity vs TRPV1-3. […] Mean±SEM is shown, ≥100 cells per condition. […] Plot generated from averaged peak ∆Ca^++ concentration of ≥75 cells per data-point.
(§2) N2a cells were used for directed expression of TRP ion channels as described previously[13]. […] All other channels were native channels from mouse, eGFP was co-transfected. […] Ca^++ imaging was performed as described previously[13][14][34].

[2] = biological target: T1, TRPV4 (Rattus norvegicus, UniProt Q9ERZ8); conditions: for inhibition of TRPV4-mediated Ca++ influx / average peak ∆Ca++ concentration: 5 μM inhibitor, GSK101 5 nM; for average peak ∆Ca++ concentration: ≈100 cells, vehicle control 1156; for increased potency over GSK205: from TRPV4 IC50 values
Protocol: We assessed TRPV4-inhibitory potency of these synthetic compounds in a Ca^++ imaging assay in neuronal 2a (N2a) permanent tissue culture cells with directed expression of mammalian (rat) TRPV4. […] For first round assessment, all TRPV4-inhibitory compounds were used at 5 μM (Fig. 2A).
(A) Ca^++ imaging screening of all compounds in N2A cells with directed expression of TRPV4 (rat). […] The number on each bar corresponds to average peak ∆Ca^++ concentrations in ≈100 cells. Inset: micrographs of pseudo-colored cells before and after activation with 5nM GSK101, in addition note the corresponding time course of the averaged Ca^++ signal (fura-2 Ca^++ imaging). […] Plot generated from averaged peak ∆Ca^++ concentration of ≥75 cells per data-point.
TRPV4-eGFP from rat was used, previously found to respond to stimulation with GSK101 and hypotonicity in similar manner as native, non-fused TRPV4.

[3] = test system: N2a cells; experiment: Cell viability (resazurin) in N2a cells; assay type: cell-based
Protocol: Figure 6 Cellular toxicity studies of compounds 16-8 and 16-19. N2a cells were subjected to increasing concentrations of compounds 16-8 and 16-19, resulting cell viability was analyzed for the next 48 h. (A) Time course of cell viability in the presence of various concentrations of 16-8. […] Representative result of 2 independent experiments.
N2a cells were cultured in 96 well plates for 24–48 h. Cell viability studies relied on metabolic capability monitored with the indicator dye resazurin. Its reduction to resorufin (indicated by color change dark blue to pink) was monitored over time. Changes in absorbance at λ = 570 nm were recorded using a microplate reader (Molecular Devices). […] Eight replicate cultures per experimental point were studied.

[4] = Preliminary in-vivo cardiac, renal and hepatic toxicity; parameters: species or system mouse; conditions: 10 mg/kg i.p., vs vehicle; for heart rate (EKG): over 1 h at the 6 h time-point
Protocol: Mice were treated i.p. with compounds 16-8 and 16-19 (10 mg/kg). Hepatic and renal integrity were analyzed by alanine amino-transferase- and creatinine assays (Sigma), both relying on measurement of absorbance at λ = 570 nm in 96-well micro-titerplates. 8 technical replicates per animal were performed.
For heart rate assessment in mice treated with 16-8 and 16-19, animals were fitted with two electrodes, one to the ear, via clip, one to the rib-cage, using firm adhesive. Heart rate was monitored and analyzed using axoscope and clampfit 9.2 software (Molecular Devices)

[5] = biological target: T2, TRPV3 (Mus musculus, UniProt Q8K424); experiment: Ca++ imaging in N2a cells over-expressing TRPV3 (camphor); conditions: 5 μM
T2 sequence (Q8K424 1-791): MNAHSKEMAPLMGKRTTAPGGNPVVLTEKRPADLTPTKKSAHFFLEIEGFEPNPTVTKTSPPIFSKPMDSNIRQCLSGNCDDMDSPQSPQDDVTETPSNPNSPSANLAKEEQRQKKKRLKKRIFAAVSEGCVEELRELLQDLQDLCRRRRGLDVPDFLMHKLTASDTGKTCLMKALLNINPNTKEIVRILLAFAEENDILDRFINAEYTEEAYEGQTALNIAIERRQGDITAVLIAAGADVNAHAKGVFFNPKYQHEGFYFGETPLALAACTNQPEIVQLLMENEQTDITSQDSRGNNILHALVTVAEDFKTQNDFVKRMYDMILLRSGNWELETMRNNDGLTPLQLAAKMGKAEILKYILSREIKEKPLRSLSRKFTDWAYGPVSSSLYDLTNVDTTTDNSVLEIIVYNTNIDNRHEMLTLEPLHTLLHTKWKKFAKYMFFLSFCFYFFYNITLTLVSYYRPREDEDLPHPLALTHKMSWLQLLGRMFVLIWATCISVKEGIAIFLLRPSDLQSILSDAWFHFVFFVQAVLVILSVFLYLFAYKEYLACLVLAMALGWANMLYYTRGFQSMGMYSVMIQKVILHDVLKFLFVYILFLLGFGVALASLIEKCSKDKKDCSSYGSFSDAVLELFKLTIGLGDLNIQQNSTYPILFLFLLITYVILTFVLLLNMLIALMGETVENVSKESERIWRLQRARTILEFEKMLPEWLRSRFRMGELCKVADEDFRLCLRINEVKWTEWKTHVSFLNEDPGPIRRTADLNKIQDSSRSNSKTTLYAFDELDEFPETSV
Protocol: as §1, §2

[6] = biological target: T1, TRPV4; experiment: Patch-clamp recording of TRPV4-mediated currents in TRPV4-GFP+ N2a cells; assay type: cell-based; parameters: expressed in transfected cells; host or cells: N2a (mouse neuroblastoma) cells; conditions: 5 μM, 5 min pre-incubation, GSK101 5 nM, current densities at −100mV/+100 mV
Protocol: Figure 3 TRPV4 channel inhibition by compounds 16-8 and 16-19 – patch-clamp e-phys. (A) Current-voltage relationship of TRPV4-mediated currents after activation with 5 nM GSK101. Recordings were performed in TRPV4-GFP+ N2a cells. The representative traces represent an average of ≈12 sweeps. In all experiments, cells were pre-incubated with the respective compound (5 μM) for 5 minutes.
Heterologously transfected N2a cells were subjected to patch clamp electrophysiological recordings. Briefly, 24 h after transfection cells were prewashed with extracellular fluid (ECF) which contained (in mM) 1 MgCl2, 10 Glucose, 10 HEPES, 145 NaCl and 2 CaCl2 (pH 7.4, 310mOsM). Cells were then incubated with or without TRPV4 inhibitors in ECF for 5 min before whole cell recording. Cover slips were transferred to a recording chamber mounted on the stage of a Leica inverted microscope that was equipped with fluorescent filters. Transfected cells were identified before patching by their green florescent color. Cells were patched with a 2.5–3.0 MΩ glass electrode pulled from borosilicate glass capillaries using pipette puller (Sutter instruments). […] Whole cell currents were recorded using pclamp 9.2 software and Axopatch 200B amplifier (Molecular Devices). […] Capacitance was monitored throughout the experimental recordings. […]

T1 sequence (Q9ERZ8 whole entry): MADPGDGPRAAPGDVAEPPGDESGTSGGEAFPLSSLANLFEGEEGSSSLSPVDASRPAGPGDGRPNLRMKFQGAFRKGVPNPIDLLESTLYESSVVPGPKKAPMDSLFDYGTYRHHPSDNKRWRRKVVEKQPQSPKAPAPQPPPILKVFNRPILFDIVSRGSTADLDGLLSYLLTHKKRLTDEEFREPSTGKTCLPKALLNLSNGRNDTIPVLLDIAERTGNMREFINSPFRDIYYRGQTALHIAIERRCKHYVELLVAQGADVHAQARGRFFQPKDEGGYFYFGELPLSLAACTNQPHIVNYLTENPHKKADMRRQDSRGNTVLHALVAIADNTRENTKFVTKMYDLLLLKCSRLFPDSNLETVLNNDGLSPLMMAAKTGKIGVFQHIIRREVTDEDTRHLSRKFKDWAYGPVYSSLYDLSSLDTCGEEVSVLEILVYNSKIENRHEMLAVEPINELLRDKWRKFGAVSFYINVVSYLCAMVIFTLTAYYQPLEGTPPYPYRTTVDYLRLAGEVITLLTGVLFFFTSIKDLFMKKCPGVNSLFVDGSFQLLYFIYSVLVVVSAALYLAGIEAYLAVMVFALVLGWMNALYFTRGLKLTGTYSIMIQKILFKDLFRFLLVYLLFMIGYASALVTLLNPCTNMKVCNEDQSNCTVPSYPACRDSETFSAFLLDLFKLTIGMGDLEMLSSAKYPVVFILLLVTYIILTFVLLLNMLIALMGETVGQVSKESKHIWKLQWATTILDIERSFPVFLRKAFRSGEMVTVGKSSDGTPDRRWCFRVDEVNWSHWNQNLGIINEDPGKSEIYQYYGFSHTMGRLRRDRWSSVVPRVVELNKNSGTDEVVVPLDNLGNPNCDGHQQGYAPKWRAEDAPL
Sequence of TRPV1 (Q704Y3 whole entry): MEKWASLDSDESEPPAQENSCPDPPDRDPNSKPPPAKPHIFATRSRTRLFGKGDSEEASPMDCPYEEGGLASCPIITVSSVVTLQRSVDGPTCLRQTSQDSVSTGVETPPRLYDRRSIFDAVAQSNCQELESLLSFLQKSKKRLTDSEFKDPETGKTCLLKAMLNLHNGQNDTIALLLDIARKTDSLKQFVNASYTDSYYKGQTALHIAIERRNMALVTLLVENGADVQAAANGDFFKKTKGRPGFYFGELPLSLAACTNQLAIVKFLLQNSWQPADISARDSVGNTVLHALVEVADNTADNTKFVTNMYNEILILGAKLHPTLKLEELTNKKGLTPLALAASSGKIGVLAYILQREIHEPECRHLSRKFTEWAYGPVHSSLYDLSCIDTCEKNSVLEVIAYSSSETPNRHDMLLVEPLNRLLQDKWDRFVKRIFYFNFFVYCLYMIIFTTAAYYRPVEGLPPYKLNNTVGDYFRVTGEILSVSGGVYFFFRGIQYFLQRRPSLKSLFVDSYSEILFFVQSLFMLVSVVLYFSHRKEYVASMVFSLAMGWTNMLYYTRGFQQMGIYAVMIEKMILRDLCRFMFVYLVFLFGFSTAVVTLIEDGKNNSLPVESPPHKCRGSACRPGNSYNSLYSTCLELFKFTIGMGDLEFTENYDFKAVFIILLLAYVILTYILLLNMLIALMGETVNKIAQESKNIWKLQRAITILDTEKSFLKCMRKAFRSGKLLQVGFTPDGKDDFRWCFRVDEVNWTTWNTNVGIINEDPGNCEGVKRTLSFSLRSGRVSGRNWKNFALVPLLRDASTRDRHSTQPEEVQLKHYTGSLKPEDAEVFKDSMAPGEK

| Structure (SMILES) | inhibition of TRPV1 [1] | IC50 [2] [nM] | inhibition of TRPV4-mediated Ca++ influx [2] | average peak ∆Ca++ concentration [2] [nM] | increased potency over GSK205 [2] | cellular toxicity vs inhibitory potency against TRPV4/TRPA1, factor [3] | cell viability ([3]; increasing concentrations, followed for 48 h) | heart rate (EKG) [4] | serum alanine-amino-transferase (ALT) [4] | serum creatinin [4] | inhibition of TRPV3 [5] | attenuation of TRPV4-mediated currents [6] |
| --- | --- | --- | --- | --- | --- | --- | --- | --- | --- | --- | --- | --- |
| CN(CCc1ccc(Nc2nc(-c3ccccc3)cs2)cc1)Cc1ccccc1 [16-8] | did not inhibit | 450 ± 50 | virtually eliminated Ca^++ influx | 6 | approximately 10 fold | 50–100 | clear reduction at 40 and 80 μM | no and did not detect differences and changes | not significantly elevated | not significantly elevated | did not inhibit | significantly increased potency |
| CCN(CCc1ccc(Nc2nc(-c3ccccc3)cs2)cc1)Cc1ccccc1 [16-19] | did not inhibit | – | virtually eliminated Ca^++ influx | 8 | ~8 fold | 50–100 | – | no and did not detect differences and changes | not significantly elevated | not significantly elevated | did not inhibit | significantly increased potency |
